Patent US20140275063A1, “NEW ENZYME INHIBITOR COMPOUNDS” (PROXIMAGEN LIMITED, priority 2011, published 2014)
Structures can show the parent of a compound that is named as a salt.

target: T1, human SSAO (Homo sapiens, UniProt Q16853); assay: SSAO inhibitory activity (HRP-coupled hydrogen peroxide detection or 14C-benzaldehyde detection, benzylamine substrate); type: biochemical; details: purified recombinantly expressed human SSAO, benzylamine as substrate, RT
T1 construct: made in house
T1 sequence (Q16853 29-763 limits assumed): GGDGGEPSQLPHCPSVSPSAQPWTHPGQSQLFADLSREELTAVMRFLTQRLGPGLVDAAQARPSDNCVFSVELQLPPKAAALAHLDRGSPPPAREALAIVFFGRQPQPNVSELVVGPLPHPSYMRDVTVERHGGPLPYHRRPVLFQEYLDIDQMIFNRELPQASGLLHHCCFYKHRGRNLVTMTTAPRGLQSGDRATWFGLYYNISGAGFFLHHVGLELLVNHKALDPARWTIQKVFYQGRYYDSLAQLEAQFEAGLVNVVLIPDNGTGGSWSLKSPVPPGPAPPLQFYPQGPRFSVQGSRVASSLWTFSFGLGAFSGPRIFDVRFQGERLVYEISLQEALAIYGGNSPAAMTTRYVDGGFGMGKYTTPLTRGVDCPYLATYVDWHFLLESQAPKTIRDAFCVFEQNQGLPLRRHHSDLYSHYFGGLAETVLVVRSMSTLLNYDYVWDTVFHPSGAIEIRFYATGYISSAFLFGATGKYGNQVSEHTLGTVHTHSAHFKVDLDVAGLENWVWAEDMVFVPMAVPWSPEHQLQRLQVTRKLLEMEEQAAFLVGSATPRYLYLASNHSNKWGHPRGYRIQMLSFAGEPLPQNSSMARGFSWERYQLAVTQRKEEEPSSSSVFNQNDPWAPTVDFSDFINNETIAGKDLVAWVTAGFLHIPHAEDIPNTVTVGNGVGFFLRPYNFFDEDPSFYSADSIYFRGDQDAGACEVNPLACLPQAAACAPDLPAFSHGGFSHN
Description: All primary assays were performed at RT. with purified recombinantly expressed human SSAO. Enzyme was prepared essentially as described in Öhman et al. (Protein Expression and Purification 46 (2006) 321-331). In addition, secondary- and selectivity assays were performed using SSAO prepared from various tissues or purified rat recombinant SSAO. The enzyme activity was assayed with benzylamine as substrate by measuring either benzaldehyde production, using ^14C-labeled substrate, or by utilizing the production of hydrogen peroxide in a horseradish peroxidase (HRP) coupled reaction. Briefly, test compounds were dissolved in dimethyl sulfoxide (DMSO) to a concentration of 10 mM. Dose-response measurements were assayed by either creating 1:10 serial dilutions in DMSO to produce a 7 point curve or by making 1:3 serial dilutions in DMSO to produce 11 point curves. The top concentrations were adjusted depending on the potency of the compounds and subsequent dilution in reaction buffer yielded a final DMSO concentration ≦2%.
In a horseradish peroxidase (HRP) coupled reaction, hydrogen peroxide oxidation of 10-acetyl-3,7-dihydroxyphenoxazine produced resorufin, which is a highly fluorescent compound (Zhout and Panchuk-Voloshina. Analytical Biochemistry 253 (1997) 169-174; Amplex® Red Hydrogen Peroxideperoxidase Assay kit, Invitrogen A22188). Enzyme and compounds in 50 mM sodium phosphate, pH 7.4 were set to pre-incubate in flat-bottomed microtiter plates for approximately 15 minutes before initiating the reaction by addition of a mixture of HRP, benzylamine and Amplex reagent. Benzylamine concentration was fixed at a concentration corresponding to the Michaelis constant, determined using standard procedures. Fluorescence intensity was then measured at several time points during 1-2 hours, exciting at 544 nm and reading the emission at 590 nm. For the human SSAO assay final concentrations of the reagents in the assay wells were: SSAO enzyme 1 μg/ml, benzylamine 100 μM, Amplex reagent 20 μM, HRP 0.1 U/mL and varying concentrations of test compound. The inhibition was measured as % decrease of the signal compared to a control without inhibitor (only diluted DMSO). The background signal from a sample containing no SSAO enzyme was subtracted from all data points. Data was fitted to a four parameter logistic model and IC50 values were calculated using the Graph Pad Prism 4 or XLfit 4 programs.
SSAO activity was assayed using 14C-labeled benzylamine and analysed by measuring radioactive benzaldehyde. In a white 96-well optiplate (Packard), 20 μL of diluted test compound was pre-incubated at RT. with 20 μL SSAO enzyme for approximately 15 minutes with continuous agitation. All dilutions were made with PBS. The reaction was initiated by adding 20 μL of the benzylamine substrate solution containing [7-14C] Benzylamine hydrochloride (CFA589, GE Healthcare). The plate was incubated for 1 hour as above after which the reaction was stopped by acidification (10 μL 1 M HCl). Then 90 μL Micro Scint-E solution (Perkin-Elmer) was added to each well and the plate was continuously mixed for 15 minutes. Phase separation occurred instantly and activity was read in a Topcount scintillation counter (Perkin-Elmer). In the final reaction well, the human recombinant SSAO concentration was 10 μg/ml. In order to optimize sensitivity, the substrate concentration was decreased as compared to the HRP coupled assay in order to get a higher fraction of radioactive product. In the human SSAO assay, benzylamine concentration was 40 μM (0.2 μCi/mL). Data was analysed as above.

**Q.** How did the IC50 turn out when `Clc1ccc(-n2nc(N3CCOC(CN4CCNCC4)C3)c3ccncc32)cc1` (centres unmarked) [Compound 36, 4-[1-(4-Chlorophenyl)-1H-pyrazolo[3,4-c]pyridin-3-yl]-2-(piperazin-1-ylmethyl) morpholine trihydrochloride] was run?
**A.** Its IC50 is < 100 nM.

**Q.** Which IC50 does the source give for `CN1CCC(CNC(=O)C2CCCCN2c2nn(-c3ccc(Cl)cc3)c3cnccc23)CC1` (centres unmarked) [Compound 43, 1-[1-(4-Chlorophenyl)-1H-pyrazolo[3,4-c]pyridin-3-yl]-N-[(1-methylpiperidin-4-yl)methyl]piperidine-2-carboxamide] here?
**A.** The IC50 was 100 to 500 nM.

**Q.** `COCCN1CCC(CNC(=O)N2CCC(c3cn(-c4ccc(Cl)cc4)c4cnccc34)CC2)CC1` [Compound 28, 4-[1-(4-Chlorophenyl)-1H-pyrrolo[2,3-c]pyridin-3-yl]-N-{[1-(2-methoxyethyl)piperidin-4-yl]methyl}piperidine-1-carboxamide; formic acid] was tested. Which IC50 did it give?
**A.** The IC50 was < 100 nM.

**Q.** `Clc1ccc(-n2cc(C3CCN(C4CCNCC4)CC3)c3ccncc32)cc1` [Compound 2, 4-[1-(4-Chlorophenyl)-1H-pyrrolo[2,3-c]pyridin-3-yl]-1-(piperidin-4-yl)piperidine] was tested. Which IC50 did it give?
**A.** The IC50 was 100 to 500 nM.

**Q.** Which IC50 does the source give for `O=C(NC1(c2nn[nH]n2)CCC1)N1CCC(c2cn(-c3ccc(Cl)cc3)c3cnccc23)CC1` [Compound 63, 4-[1-(4-Chlorophenyl)-1H-pyrrolo[2,3-c]pyridin-3-yl]-N-[1-(2H-1,2,3,4-tetrazol-5-yl)cyclobutyl]piperidine-1-carboxamide; trifluoroacetic acid] here?
**A.** Its IC50 is < 100 nM.

**Q.** Which IC50 does the source give for `O=C(NCCN1CCNCC1)N1CCC(c2cn(-c3ccc(Cl)cc3)c3cnccc23)CC1` [Compound 23, 4-[1-(4-Chlorophenyl)-1H-pyrrolo[2,3-c]pyridin-3-yl]-N-[2-(piperazin-1-yl)ethyl] piperidine-1-carboxamide] here?
**A.** Its IC50 is < 100 nM.

**Q.** With `CN1CCC(NC(=O)CC2COCCN2c2nn(-c3ccc(Cl)cc3)c3cnccc23)CC1` (centres unmarked) [Compound 57, 2-{4-[1-(4-Chlorophenyl)-1H-pyrazolo[3,4-c]pyridin-3-yl]morpholin-3-yl)-N-(1-methylpiperidin-4-yl)acetamide] as the molecule, how does the IC50 read?
**A.** Its IC50 is 100 to 500 nM.

**Q.** With `CNC(=O)NCC1CN(c2nn(-c3ccc(Cl)cc3)c3cnccc23)CCO1` (centres unmarked) [Compound 60, 1-({4-[1-(4-Chlorophenyl)-1H-pyrazolo[3,4-c]pyridin-3-yl]morpholin-2-yl}methyl)-3-methylurea] as the molecule, how does the IC50 read?
**A.** Its IC50 is < 100 nM.

**Q.** For `CC(C)N1CCC(CN(C)C(=O)N2CCC(c3cn(-c4ccc(Cl)cc4)c4cnccc34)CC2)CC1` [Compound 15, 4-[1-(4-Chlorophenyl)-1H-pyrrolo[2,3-c]pyridin-3-yl]-N-methyl-N-{[1-(propan-2-yl)piperidin-4-yl]methyl} piperidine-1-carboxamide], which IC50 is on record?
**A.** Its IC50 is < 100 nM.

**Q.** For `COC(=O)CC1COCCN1c1nn(-c2ccc(Cl)cc2)c2cnccc12` (centres unmarked) [Compound 40, Methyl 2-{4-[1-(4-chlorophenyl)-1H-pyrazolo[3,4-c]pyridin-3-yl]morpholin-3-yl}acetate], which IC50 is on record?
**A.** The IC50 was < 100 nM.

**Q.** `O=C1NCCN1CCNc1nn(-c2ccc(Cl)cc2)c2cnccc12` [Compound 64, 1-(2-{[1-(4-Chlorophenyl)-1H-pyrazolo[3,4-c]pyridin-3-yl]amino}ethyl)imidazolidin-2-one] was tested. Which IC50 did it give?
**A.** Its IC50 is < 100 nM.

**Q.** With `O=C(NCCN1CCOCC1)N1CCC(c2cn(-c3ccc(Cl)cc3)c3cnccc23)CC1` [Compound 22, 4-[1-(4-Chlorophenyl)-1H-pyrrolo[2,3-c]pyridin-3-yl]-N-[2-(morpholin-4-yl)ethyl]piperidine-1-carboxamide] as the molecule, how does the IC50 read?
**A.** The IC50 was < 100 nM.

**Q.** Which IC50 does the source give for `CN1CCN(CCC2COCCN2c2nn(-c3ccc(Cl)cc3)c3cnccc23)CC1` (centres unmarked) [Compound 42, 4-[1-(4-Chlorophenyl)-1H-pyrazolo[3,4-c]pyridin-3-yl]-3-[2-(4-methylpiperazin-1-yl)ethyl]morpholine] here?
**A.** Its IC50 is < 100 nM.

**Q.** How did the IC50 turn out when `O=C(NC(c1nn[nH]n1)C1CC1)N1CCC(c2cn(-c3ccc(Cl)cc3)c3cnccc23)CC1` (centres unmarked) [Compound 62, 4-[1-(4-Chlorophenyl)-1H-pyrrolo[2,3-c]pyridin-3-yl]-N—[cyclopropyl(2H-1,2,3,4-tetrazol-5-yl)methyl]piperidine-1-carboxamide; trifluoroacetic acid] was run?
**A.** Its IC50 is < 100 nM.
